Data on two compounds can be found in patent US7615361B2, “Toxicity screening methods” (Ceetox, Inc., priority 2006, dated 2009).

One series concerns NRK cells. The series can be described thus: Caspase 3 activity (apoptosis). Format: cell-based, rat. As to the method:
Caspase 3 Procedure: Caspase 3 activity was determined using a caspase substrate (DEVD, Asp-Glu-Val-Asp) labeled with a fluorescent molecule, 7-Amino4-methylcoumarin (AMC). Caspase 3 cleaves the tetrapeptide between D and AMC, thus releasing the fluorogenic […] AMC. Following the test article exposure to cells in 96-well plates, medium was aspirated from plates and PBS added to each well. Plates were stored at −80° C. to lyse cells and store samples until further analysis. On the day of analysis, plates were removed from freezer and thawed. Caspase buffer with fluorescent substrate was added to each well and incubated at room temperature for 1 hr. AMC release was measured in a spectrofluorometer at an excitation wavelength of 360 nm and an emission wavelength of 460 nm. Values are expressed as relative fluorescent units (RFU).
Caspase Activity: After sample plates were completely thawed, the caspase substrate buffer mix was added to each plate. Plates were incubated at room temperature for 1hr, shielded from light. Plates were read using a in a spectrofluorometer at an excitation wavelength of 360 nm and an emission wavelength of 460 nm. Values were expressed as relative fluorescent units (RFU).
The key to the maximal response data can be found below Table 2.
The third experiment was done to evaluate the specificity and selectivity of the test compound in another non-tumor cell that was derived from normal rat kidney tissue.

Another series deals with iNOS. Briefly: bDNA analysis of mRNA in rat cardiomyocytes. Format: cell-based. As to the method:
Nitric oxide was also evaluated since it has been implicated in many pathways related to oxidative stress, apoptosis, and cardiac hypertrophy. More specifically, adriamycin induced mitochondrial toxicity is reduced in the presence of increased iNOS. Thus, a compensatory response to mitochondrial toxicity may be an increase in iNOS (Chaiswing et al., 2005). In this example, rat cardiomyocytes exposed to adriamycin induced iNOS expression more than 15-fold (FIG. 27C).
bDNA Sample Collection and Storage: After 48 hr compound exposure in 96-well plates, 50 μL of stock lysis mixture was added to each 100 μL well. Plates were mixed using a DPC 5 Micromix plate shaker at 37° C. for 15-30 minutes to ensure complete lysis of cells. Cell lysis was confirmed using a Nikon inverted microscope. Plates were stored at −80° C. until further analysis.
bDNA Analysis (Day 1): All solutions were prepared fresh on the day of analysis. Quantigene® bDNA kit components were brought to room temperature prior to use. […]
Substrate working solution was prepared by adding 30 μL of 10% Lithium Lauryl Sulfate to 10 mL Substrate solution per plate. […] Upon completion of last incubation, luminescence was measured using a Packard Fusion or equivalent plate reader with plate heater set to 46° C. Data were collected as relative light units (RLU) and expressed as fold change relative to controls after background subtract.

Another series concerns H4IIE cells. The series can be described thus: MemTox membrane leakage (AK / α-GST). In kind it is cell-based, rat. Particulars: rat, 24 h. A digest of the protocol:
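H4IIE rat hepatoma cells were exposed to compound diluted in complete culture medium. Leakage of adenylate kinase (luminescence) and/or α-GST (ELISA, 450/650 nm) was measured in the medium collected at the end of exposure. Percent live cells was computed relative to 1 mM digitonin-treated maximum release, as means of n=3-7.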

Consider `CC[C@@]1(O)C(=O)OCc2c1cc1n(c2=O)Cc2cc3ccccc3nc2-1` [CAMPTOTHECIN, Camptothecin], for which, in the series with NRK cells (6 HR), the “Caspase 3 Activity (Index/Dose): Dose” value was determined as 100 µM and the “Caspase 3 Activity (Index/Dose): Index” value is reported as 3 (40-60 = 3). Moreover, in the series with NRK cells (24 HR), the “Caspase 3 Activity (Index/Dose): Dose” value worked out at 300 µM and the “Caspase 3 Activity (Index/Dose): Index” value is given as 10 (180-200 = 10).
Turning to `COc1cccc2c1C(=O)c1c(O)c3c(c(O)c1C2=O)C[C@@](O)(C(=O)CO)C[C@@H]3O[C@H]1C[C@H](N)[C@H](O)[C@H](C)O1` [ADRIAMYCIN, Adriamycin], the iNOS expression induction entry in the series on iNOS is “more than 15 fold”. The “less toxic in liver cells than in the cardiomyocytes (TC50 for membrane integrity)” value with H4IIE cells is “approximately 5 fold”.
